“Also recorded” adds a separate entry of the source.
Legend:
[1] = system: sham-transfected COS-7 cells; test: [3H]LTB4 binding to membranes from sham-transfected COS-7 cells; set-up: species or system African green monkey
Experimental: (§1) Intact plasmid DNA (10-25 μg) of the cDNA clone, Lyme21-9 (1), was transfected using the calcium phosphate precipitation method. Chinese hamster ovary cells (CHO-K1) were used to establish stable expression of the corresponding receptor, CMKRL1. The pCDneo vector was co-transfected to allow for selection with G-418)Geneticin, 500 μg/ml). Single resistant colonies were isolated to obtain homogenous cell lines, and appropriate expression of the corresponding mRNA were verified by Northern blot hybridization with cDNA probes. SV40 transformed African green monkey kidney cells (COS-7) were used for transient expression. These cells were harvested after 48 hrs for preparation and isolation of membranes. Sham-transfected cells were used as controls throughout.
The transiently transfected COS-7 cells were washed with PBS, which was replaced with 50 mM TRIS/HCl buffer (pH 7.4) containing 1 mM EGTA and 5 mM MgCl2, and scraped off. After homogenization for 20 sec in a Polytron homogenizer (Brinkmann, setting 5.5) the material was centrifuged at 20,000 rpm for 30 min at 4° C., followed by washing through homogenization in the TRIS binding buffer and subsequent recentrifugation, which was repeated twice. The pellet was finally resuspended by homogenization and stored in liquid nitrogen until used. […]

CMKRL1 [2] = molecular target: T1, CMKRL1 (Homo sapiens, UniProt Q15722); test: Intracellular calcium (Fura-2) in CHO cells stably expressing CMKRL1; format: cell-based; details: 1000 nM LTB4
T1 construct: A full-length cDNA (Lyme21-9) encoding a novel putative seven-transmembrane (7TM) domain receptor, named CMKRL1; expressed in transfected cells
T1 sequence (Q15722 whole entry): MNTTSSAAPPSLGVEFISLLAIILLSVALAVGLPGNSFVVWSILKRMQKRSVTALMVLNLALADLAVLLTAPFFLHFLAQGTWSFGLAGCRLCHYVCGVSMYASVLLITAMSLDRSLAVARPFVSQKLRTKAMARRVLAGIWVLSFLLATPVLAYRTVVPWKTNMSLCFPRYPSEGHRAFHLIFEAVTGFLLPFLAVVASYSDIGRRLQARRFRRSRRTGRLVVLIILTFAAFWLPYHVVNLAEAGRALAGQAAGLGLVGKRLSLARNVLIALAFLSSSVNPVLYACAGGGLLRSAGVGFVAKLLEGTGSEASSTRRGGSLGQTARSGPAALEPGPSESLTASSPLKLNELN
Experimental: as §1, with “throughout. […]” for “throughout.”
Agonists were added in 50 μl of extracellular medium buffer and mixed thoroughly with the original contents of the well. Fluorescence images were obtained by alternate excitation at 340 and 380 nm, and the emitted light was measured at 510 nm. The software configuration allowed for storage of fluorescence information from groups of cells, which could then be analyzed separately. Intracellular calcium concentrations were calibrated using the method described by William and Fay (5) and calculated from the aforementioned radiometric images using the mathematical relationship described by Grynkiewicz et al. (6). […]

[3] = system: sham-transfected control cells; test: Intracellular calcium (Fura-2) in sham-transfected CHO control cells; format: cell-based, Chinese hamster; details: any dose level, shown for 1000 nM
Experimental: as §1, with “These cells were harvested after 48 hrs for preparation and isolation of membranes. Sham-transfected cells were used as controls throughout.” left out
Transfected cells were seeded into 96-well plates (Corning-Costar) by dissociating confluent cultures using PBS containing 2 mM EDTA, diluting the resulting suspension 20×, and adding 50 μl per well. […] After 3 washes in extracellular medium buffer (135 mM NaCl, 4.6 mM KCl, 1.2 MM MgCl2, 1.5 mM CaCl2, 11 mM glucose, 11 mM Hepes, pH 7.4), the plates were mounted on the stage of a Nikon inverted fluorescence microscope attached to an SIT-camera and an image analysis system (Photon Technology International). […]
Agonists were added in 50 μl of extracellular medium buffer and mixed thoroughly with the original contents of the well. Fluorescence images were obtained by alternate excitation at 340 and 380 nm, and the emitted light was measured at 510 nm. […]

CMKRL1 [4] = molecular target: T1, CMKRL1; test: [3H]LTB4 saturation binding to membranes from COS-7 cells transiently transfected with Lyme21-9 cDNA; details: for Bmax: Scatchard analysis, COS-7 membranes, 4° C.; for binding sites identified: saturation binding, linear Scatchard plot
Experimental: as §1
The transiently transfected COS-7 cells were washed with PBS, which was replaced with 50 mM TRIS/HCl buffer (pH 7.4) containing 1 mM EGTA and 5 mM MgCl2, and scraped off. After homogenization for 20 sec in a Polytron homogenizer (Brinkmann, setting 5.5) the material was centrifuged at 20,000 rpm for 30 min at 4° C., followed by washing through homogenization in the TRIS binding buffer and subsequent recentrifugation, which was repeated twice. The pellet was finally resuspended by homogenization and stored in liquid nitrogen until used. For the binding studies, membrane material corresponding to 30 μg protein ([…]) was blended with ice-cold binding buffer (0.02 M Hepes buffer containing 10 mM CaCl2 and MgCl2) to a final volume of 70 μl and added to wells in a 96-well polypropylene plate. […] Each data point is the result of the mean of triplicate wells from three separate experiments, which have in turn been averaged.

Row | Structure (SMILES) | specific binding [1] | increase in intracellular calcium in calcium-free medium (CMKRL1 [2]) | effect on intracellular calcium in sham-transfected control cells [3] | Bmax (CMKRL1 [4]) [pmoles/mg protein] | Bmax (CMKRL1 [4]; listed as tritiated LTB4) [pmoles/mg protein] | Non-specific binding as share of the total binding (CMKRL1 [4]; binding of tritiated ligand in the presence of 1 μM non-labelled ligand) | binding sites identified (CMKRL1 [4]) | binding sites identified (CMKRL1 [4]; listed as tritiated LTB4)
1 | CCCCC/C=C\C[C@@H](O)/C=C/C=C/C=C\[C@@H](O)CCCC(=O)O [LTB4, leukotriene B4] | No binding | no longer included any significant increase; also recorded: No response | completely without effect; also recorded: No response; also recorded: No binding or activation | – | – | – | – | –
2 | CCCCC/C=C\C[C@@H](O)/C=C/C=C\C=C\[C@@H](O)CCCC(=O)O [[^3H]LTB4] | no specific binding | – | – | 17.0 ± 2.0 | 17.0 | less than 15% | single class of high-affinity binding sites | binds with high affinity to a single receptor population
